Laboratory results as given in patent publication US6495133B1, “Gliocladium roseum strains useful for the control of fungal pathogens in plants” (priority 1998, dated 2002).
Read-outs that look alike come from different tables or passages of the source.

How the values were obtained:
[1] = test system: Mycosphaerella pinodes; assay: Control of seed-borne phase of mycosphaerella blight in field pea, field experiments; format: in vivo; settings: for increased emergence by / increased yield by: average of two cultivars
[2] = test system: Aphanomyces euteiches; assay: Control of aphanomyces root rot in field pea, field experiments; format: in vivo
[3] = test system: field pea; assay: Comparison and compatibility of ACM941 with thiram fungicide, field pea, field experiments; format: in vivo
[4] = test system: Fusarium solani; assay: Control of fusarium root rot in field pea, growth room experiments; settings: Field pea (cv. Radley)
Protocol: (§1) In growth room experiments, seeds were planted in wood planting flats (35.5×47.0×9.0 cm) containing soil mixture of 2:1:1 of soil, perlite and peat moss. The soil mixture was pasteurized and mixed at about 2% v/v with artificially infested vermiculite that was moistened with 0.4% malt extract, autoclaved, inoculated with B. solani, and incubated at 20° C. for 7 days prior to the planting. […] For each treatment 100 seeds were planted in each of the 4-replicate flats. The planted flats were placed in a growth room maintained at 20° C. and with a 14-h photoperiod at 350 mol.m^−2.s^−1 light intensity by fluorescent and incandescent lamps. All experiments were arranged in a completely randomized block design. Emergence was counted 7 days after planting and other parameters were assessed after digging out plants 14 to 16 days after planting. Disease severity was rated on a scale of 0 (no visible lesions on lower stem and roots, seedling is well developed) to 9 (death of plant, the seedling died back quickly after emergence).

[5] = test system: Fusarium graminearum, Bipolaris sorokiniana, F. avenaceum, Alternaria alternata, and other Fusarium species (naturally infected seeds); format: in vivo
[6] = test system: Sclerotinia sclerotiorum; assay: Control of sclerotinia rot in field pea, growth room experiments
Protocol: as §1
The seed treatment procedures, inoculum preparation, inoculation and assessment methods for both growth room and field experiments were the same as described above.

[7] = test system: Fusarium oxysporum; assay: Control of fusarium wilt in field pea, growth room experiments; settings: Field pea (cv. Radley)
Protocol: as §1

[8] = test system: Mycosphaerella pinodes; assay: Control of mycosphaerella seedling blight/root rot in field pea, field experiments; format: in vivo
[9] = test system: Fusarium solani; assay: Control of fusarium root rot in field pea, field experiments; format: in vivo
[10] = test system: Fusarium oxysporium; assay: Control of fusarium wilt in field pea, field experiments; format: in vivo
[11] = test system: Rhizoctonia solani; assay: Control of rhizoctonia root rot in field pea, field experiments; format: in vivo
[12] = test system: Sclerotinia sclerotiorum; assay: Control of sclerotinia rot in field pea, field experiments; format: in vivo
[13] = test system: Mycosphaerella pinodes; assay: Control of mycosphaerella seedling blight/root rot in field pea, growth room experiments; settings: Field pea (cv. Radley)
Protocol: as §1

[14] = Healthy-looking seed (HL), 1995, AC Tamor
[15] = Healthy-looking seed (HL), 1995, Radley
[16] = Healthy-looking seed (HL), 1996, AC Tamor
[17] = Healthy-looking seed (HL), 1996, Radley
[18] = Visibly poor seed (VP), 1995, AC Tamor
[19] = Visibly poor seed (VP), 1995, Radley
[20] = Visibly poor seed (VP), 1996, AC Tamor
[21] = Visibly poor seed (VP), 1996, Radley
[22] = Lacombe site, average of two cultivars and two years
[23] = Morden site, average of two cultivars and two years
[24] = barley, average of the two cultivars

For `CN(C)C(=S)SSC(=S)N(C)C` [Thiram, thiram], the “increased emergence by” value ([1]; HL seeds, 1995) was 108%, the “increased yield by” value ([1]; HL seeds, 1995) was 106% and the “decreased yield by” value ([1]; HL seeds, 1996) was 6%. The “increased emergence by” value ([1]; HL seeds, 1996) was 38%, the Emergence [1, 14] was 75.9 a and the Yield [1, 14] was 2892 a. It also gave an Emergence [1, 15] of 91.0 a, a Yield [1, 15] of 459 a and an Emergence [1, 16] of 77.9 a. It also gave a Yield [1, 16] of 7381 a, an Emergence [1, 17] of 89.1 a and a Yield [1, 17] of 3114 b. The “increased emergence by” value ([1]; VP seeds, 1995) was 293%, the “increased yield by” value ([1]; VP seeds, 1995) was 148% and the “increased emergence by” value ([1]; VP seeds, 1996) was 55%. The “increased yield by” value ([1]; VP seeds, 1996) was 4%, the Emergence [1, 18] was 51.0 a and the Yield [1, 18] was 260 a. It also gave an Emergence [1, 19] of 29.1 a, a Yield [1, 19] of 643 a and an Emergence [1, 20] of 49.5 a. For the same compound, the Yield [1, 20] was 7228 a, the Emergence [1, 21] was 57.5 a and the Yield [1, 21] was 4410 a. It also gave an Emergence ([2]; 1998, Carneval) of 88.1 a, a Yield ([2]; 1998, Carneval) of 6122 a and an Emergence ([2]; 1998, Radley) of 91.9 a. The Yield ([2]; 1998, Radley) was 5110 a, the Emergence ([2]; 1999, Carneval) was 90.3 a and the Yield ([2]; 1999, Carneval) was 4986 a. The Emergence ([2]; 1999, Radley) was 81.0 a, the Yield ([2]; 1999, Radley) was 4315 a and the “increased emergence by” value [3, 22] was 4%. For the same compound, the “reduced yield by” value [3, 22] was 4%, the Emergence ([3]; Lacombe, Alberta, 1996, Grande) was 87.2 a and the Yield ([3]; Lacombe, Alberta, 1996, Grande) was 8729 a. It also gave an Emergence ([3]; Lacombe, Alberta, 1996, Radley) of 84.0 a, a Yield ([3]; Lacombe, Alberta, 1996, Radley) of 5782 a and an Emergence ([3]; Lacombe, Alberta, 1997, Grande) of 67.0 b. It also gave a Yield ([3]; Lacombe, Alberta, 1997, Grande) of 6507 b, an Emergence ([3]; Lacombe, Alberta, 1997, Radley) of 87.3 a and a Yield ([3]; Lacombe, Alberta, 1997, Radley) of 4300 a. For the same compound, the “increased emergence by” value [3, 23] was 38%, the “increased yield by” value [3, 23] was 29% and the Emergence ([3]; Morden, Manitoba, 1996, Grande) was 64.9 a. The Yield ([3]; Morden, Manitoba, 1996, Grande) was 4541 a, the Emergence ([3]; Morden, Manitoba, 1996, Radley) was 74.1 a and the Yield ([3]; Morden, Manitoba, 1996, Radley) was 3286 a. It also gave an Emergence ([3]; Morden, Manitoba, 1997, Grande) of 65.0 a, a Yield ([3]; Morden, Manitoba, 1997, Grande) of 1878 a and an Emergence ([3]; Morden, Manitoba, 1997, Radley) of 79.1 a. For the same compound, the Yield ([3]; Morden, Manitoba, 1997, Radley) was 1064 c, the “increased yield by” value ([3]; average of the four station years, two sites) was 12% and the Dry wt. [4] was 0.27 a g/plant. The Emergence [4] was 57.5 a %, the Fresh wt. [4] was 2.7 a g/plant and the Root rot severity [4] was 3.3 ab 0-9. It also gave a Dry wt. ([5]; Barley, Argyle) of 0.32 a g/plant, an Emergence ([5]; Barley, Argyle) of 93.9 a % and a Fresh wt. ([5]; Barley, Argyle) of 1.24 a g/plant. The Root rot incidence ([5]; Barley, Argyle) was 10.8 b %, the Root rot severity ([5]; Barley, Argyle) was 0.5 b 0-9 and the Dry wt. ([5]; Barley, Manley) was 0.22 a g/plant. For the same compound, the Emergence ([5]; Barley, Manley) was 84.3 a %, the Fresh wt. ([5]; Barley, Manley) was 1.04 a g/plant and the Root rot incidence ([5]; Barley, Manley) was 77.8 a %. For the same compound, the Root rot severity ([5]; Barley, Manley) was 4.2 ab 0-9, the Dry wt. ([5]; Wheat, Katepwa) was 0.23 a g/plant and the Emergence ([5]; Wheat, Katepwa) was 70.7 a %. For the same compound, the Fresh wt. ([5]; Wheat, Katepwa) was 0.96 a g/plant, the Root rot incidence ([5]; Wheat, Katepwa) was 12.5 ab % and the Root rot severity ([5]; Wheat, Katepwa) was 0.7 ab 0-9. For the same compound, the Dry wt. ([5]; Wheat, Plenty) was 0.16 a g/plant, the Emergence ([5]; Wheat, Plenty) was 88.4 a % and the Fresh wt. ([5]; Wheat, Plenty) was 0.79 a g/plant. It also gave a Root rot incidence ([5]; Wheat, Plenty) of 10.1 b %, a Root rot severity ([5]; Wheat, Plenty) of 0.6 b 0-9 and a Dry wt. ([5]; Wheat, Sceptre) of 0.14 a g/plant. For the same compound, the Emergence ([5]; Wheat, Sceptre) was 52.4 a %, the Fresh wt. ([5]; Wheat, Sceptre) was 0.65 a g/plant and the Root rot incidence ([5]; Wheat, Sceptre) was 24.7 b %. For the same compound, the Root rot severity ([5]; Wheat, Sceptre) was 1.1 b 0-9, the “reduced root rot incidence by” value [5, 24] was 31% and the “reduced root rot severity by” value [5, 24] was 38%. For the same compound, the Dry wt. ([6]; Field pea (cv. Radley)) was 0.23 a g/plant, the Emergence ([6]; Field pea (cv. Radley)) was 68.1 a % and the Fresh wt. ([6]; Field pea (cv. Radley)) was 2.2 a g/plant. For the same compound, the Root rot severity ([6]; Field pea (cv. Radley)) was 3.2 ab 0-9, the “effect on dry weight compared to the nontreated control” value ([6]; greenhouse experiments) was “Neither ACM941 nor thiram fungicide showed an increase in dry weight” and the Dry wt. [7] was 0.34 a g/plant. The Emergence [7] was 86.3 a %, the Fresh wt. [7] was 3.1 a g/plant and the Root rot severity [7] was 1.3 a 0-9. It also gave an Emergence ([8]; 1996, AC Tamor) of 76.3 a, a Yield ([8]; 1996, AC Tamor) of 2140 ab and an Emergence ([8]; 1996, Radley) of 84.5 a. The Yield ([8]; 1996, Radley) was 1623 a, the Emergence ([8]; 1997, AC Tamor) was 80.0 a and the Yield ([8]; 1997, AC Tamor) was 5645 a. It also gave an Emergence ([8]; 1997, Radley) of 80.2 a, a Yield ([8]; 1997, Radley) of 3328 a and an Emergence ([9]; 1996, AC Tamor) of 76.1 a. It also gave a Yield ([9]; 1996, AC Tamor) of 5374 a, an Emergence ([9]; 1996, Radley) of 81.4 a and a Yield ([9]; 1996, Radley) of 3674 a. It also gave an Emergence ([9]; 1997, AC Tamor) of 66.2 a, a Yield ([9]; 1997, AC Tamor) of 5600 a and an Emergence ([9]; 1997, Radley) of 65.7 b. For the same compound, the Yield ([9]; 1997, Radley) was 3379 a, the Emergence ([10]; 1996, AC Tamor) was 78.3 a and the Yield ([10]; 1996, AC Tamor) was 5203 a. The Emergence ([10]; 1996, Radley) was 85.9 ab, the Yield ([10]; 1996, Radley) was 2442 a and the Emergence ([10]; 1997, AC Tamor) was 84.0 a. It also gave a Yield ([10]; 1997, AC Tamor) of 6625 a, an Emergence ([10]; 1997, Radley) of 63.8 ab and a Yield ([10]; 1997, Radley) of 5037 b. It also gave an Emergence ([11]; 1996, AC Tamor) of 45.5 a, a Yield ([11]; 1996, AC Tamor) of 2497 a and an Emergence ([11]; 1996, Radley) of 47.4 a. For the same compound, the Yield ([11]; 1996, Radley) was 1589 a, the “increased emergence by” value ([11]; 1996, average of two varieties) was 2% and the “reduced yield by” value ([11]; 1996, average of two varieties) was 12.5%. The effect on emergence [11]; 1997 was “increased emergence significantly”, the effect on yield [11]; 1997 was “did not increase the yield” and the Emergence ([11]; 1997, AC Tamor) was 76.0 a. The Yield ([11]; 1997, AC Tamor) was 5367 a, the Emergence ([11]; 1997, Radley) was 58.6 b and the Yield ([11]; 1997, Radley) was 4666 a. The Emergence ([12]; 1996, AC Tamor) was 41.8 a, the Yield ([12]; 1996, AC Tamor) was 4327 a and the Emergence ([12]; 1996, Radley) was 48.9 a. The Yield ([12]; 1996, Radley) was 2598 a, the Emergence ([12]; 1997, AC Tamor) was 49.7 a and the Yield ([12]; 1997, AC Tamor) was 5402 b. The Emergence ([12]; 1997, Radley) was 50.5 a, the Yield ([12]; 1997, Radley) was 5049 a and the Dry wt. [13] was 0.32 a g/plant. The Emergence [13] was 67.5 a %, the Fresh wt. [13] was 3.1 a g/plant and the Root rot severity [13] was 2.3 a 0-9.
